This test addresses T1, human B-Raf (Homo sapiens, UniProt P15056).
T1 construct: Flag; GST; made in house; host or cells: Sf9 insect cells (B-Raf); E. coli (MEK1-GST)
Put plainly: B-Raf Kinase to MEK1 ELISA. Type of test: biochemical. Particulars: for inhibition at 10 µM: read-out: % Inhib./10 uM. In outline:
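Flag/GST-tagged human B-Raf (Sf9, ~20 ng/point) phosphorylates non-active GST-MEK1 (50 nM final) with ATP and MgCl2 in MOPS pH 7.2 buffer, 60 min at RT. Product is captured on anti-GST plates; MEK1 pSer217/221 is read by phospho-antibody plus europium conjugate (DELFIA).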
A general note: An ELISA detects its analyte on a solid surface through an enzyme-linked reagent.

The mark [1] stands for this setting: median, cpd concentrations from 10 μM to 30 nM in half log dilutions, read-out: Median IC50.

SMILES strings stand for the structures. Like-named read-outs stand apart in the source and are kept apart here.

Results on 28 compounds are retold here after patent publication US20070219186A1, “Pyrazolo[1,5-A]pyrimidine derivatives and methods of use thereof” (priority 2006, published 2007).

T1 sequence (P15056 whole entry): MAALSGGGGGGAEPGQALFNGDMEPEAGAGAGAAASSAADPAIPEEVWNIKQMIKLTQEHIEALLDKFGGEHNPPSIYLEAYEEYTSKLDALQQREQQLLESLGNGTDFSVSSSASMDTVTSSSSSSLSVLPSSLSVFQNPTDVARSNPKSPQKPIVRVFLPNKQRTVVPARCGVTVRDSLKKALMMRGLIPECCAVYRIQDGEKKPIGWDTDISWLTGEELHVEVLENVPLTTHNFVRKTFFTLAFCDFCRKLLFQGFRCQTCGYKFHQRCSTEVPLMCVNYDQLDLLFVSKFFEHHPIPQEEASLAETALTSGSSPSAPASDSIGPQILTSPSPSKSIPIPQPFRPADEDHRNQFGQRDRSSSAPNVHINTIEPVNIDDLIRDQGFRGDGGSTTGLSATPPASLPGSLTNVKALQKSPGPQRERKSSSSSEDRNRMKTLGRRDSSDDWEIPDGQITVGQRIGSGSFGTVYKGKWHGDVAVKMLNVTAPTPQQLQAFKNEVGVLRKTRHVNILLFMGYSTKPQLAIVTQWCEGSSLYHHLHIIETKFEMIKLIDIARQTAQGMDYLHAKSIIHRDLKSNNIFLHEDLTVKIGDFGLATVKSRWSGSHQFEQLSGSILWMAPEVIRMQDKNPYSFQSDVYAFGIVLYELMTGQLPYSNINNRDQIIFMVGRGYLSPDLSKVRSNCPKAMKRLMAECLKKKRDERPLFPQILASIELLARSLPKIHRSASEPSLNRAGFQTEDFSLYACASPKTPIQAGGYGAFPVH

As a reminder, the IC50 is the concentration needed to halve the response being measured. `O=C(Nc1cccc(-c2ccnc3cc(-c4ccc(Br)cc4)nn23)c1)c1cccc(C(F)(F)F)c1` [Example 287, N-{3-[2-(4-bromophenyl)pyrazolo[1,5-a]pyrimidin-7-yl]phenyl}-3-(trifluoromethyl)benzamide]: the inhibition at 10 µM turned out to be 12%. Also, the IC50 under setting [1] is above 10000 nM.
In the case of `CN(C)S(=O)(=O)c1ccc(-c2cnn3c(-c4cccc(NC(=O)c5cccc(C(F)(F)F)c5)c4)ccnc23)cc1` [Example 288, N-[3-(3-{4-[(dimethylamino)sulfonyl]phenyl}pyrazolo[1,5-a]pyrimidin-7-yl)phenyl]-3-(trifluoromethyl)benzamide], the inhibition at 10 µM stood at 35%. Also, the IC50 under setting [1] was above 10000 nM.
Taken in the same sequence, the figures for `CN(C)CCc1ccc(-c2cnn3c(-c4cccc(NC(=O)c5cccc(C(F)(F)F)c5)c4)ccnc23)cc1` [Example 289, N-[3-(3-{4-[2-(dimethylamino)ethyl]phenyl}pyrazolo[1,5-a]pyrimidin-7-yl)phenyl]-3-(trifluoromethyl)benzamide] were 86% and 26 nM.
On to `O=C(Nc1cccc(-c2ccnc3c(-c4ccccc4C(F)(F)F)cnn23)c1)c1cccc(C(F)(F)F)c1` [Example 290, 3-(trifluoromethyl)-N-(3-{3-[2-(trifluoromethyl)phenyl]pyrazolo[1,5-a]pyrimidin-7-yl}phenyl)benzamide], for which the IC50 is 367 nM and the inhibition at 10 µM was 67%.
As for `O=C(Nc1cccc(-c2ccnc3c(-c4cccc(C(F)(F)F)c4)cnn23)c1)c1cccc(C(F)(F)F)c1` [Example 291, 3-(trifluoromethyl)-N-(3-{3-[3-(trifluoromethyl)phenyl]pyrazolo[1,5-a]pyrimidin-7-yl}phenyl)benzamide], the inhibition at 10 µM stood at 33%. For the same compound, the IC50 under setting [1] is above 10000 nM.
Taken in the same sequence, the figures for `O=C(Nc1cccc(-c2ccnc3c(-c4ccc(C(F)(F)F)cc4)cnn23)c1)c1cccc(C(F)(F)F)c1` [Example 292, 3-(trifluoromethyl)-N-(3-{3-[4-(trifluoromethyl)phenyl]pyrazolo[1,5-a]pyrimidin-7-yl}phenyl)benzamide] were 26% and above 10000 nM.
For `N#Cc1ccccc1-c1cnn2c(-c3cccc(NC(=O)c4cccc(C(F)(F)F)c4)c3)ccnc12` [Example 293, N-{3-[3-(2-cyanophenyl)pyrazolo[1,5-a]pyrimidin-7-yl]phenyl}-3-(trifluoromethyl)benzamide], the IC50 is 7470 nM and the inhibition at 10 µM was 55%.
Regarding `N#Cc1cccc(-c2cnn3c(-c4cccc(NC(=O)c5cccc(C(F)(F)F)c5)c4)ccnc23)c1` [Example 294, N-{3-[3-(3-cyanophenyl)pyrazolo[1,5-a]pyrimidin-7-yl]phenyl}-3-(trifluoromethyl)benzamide], the inhibition at 10 µM turned out to be 42%. In addition, the IC50 under setting [1] is above 10000 nM.
For `N#Cc1ccc(-c2cnn3c(-c4cccc(NC(=O)c5cccc(C(F)(F)F)c5)c4)ccnc23)cc1` [Example 295, N-{3-[3-(4-cyanophenyl)pyrazolo[1,5-a]pyrimidin-7-yl]phenyl}-3-(trifluoromethyl)benzamide], in that order: 41% and above 10000 nM.
With `COC(=O)c1cccc(-c2cnn3c(-c4cccc(NC(=O)c5cccc(C(F)(F)F)c5)c4)ccnc23)c1` [Example 296, methyl 3-[7-(3-{[3-(trifluoromethyl)benzoyl]amino}phenyl)pyrazolo[1,5-a]pyrimidin-3-yl]benzoate], the IC50 is 1770 nM and the inhibition at 10 µM amounted to 53%.
For `COC(=O)c1ccc(-c2cnn3c(-c4cccc(NC(=O)c5cccc(C(F)(F)F)c5)c4)ccnc23)cc1` [Example 297, methyl 4-[7-(3-{[3-(trifluoromethyl)benzoyl]amino}phenyl)pyrazolo[1,5-a]pyrimidin-3-yl]benzoate], in that order: 2190 nM and 75%.
With `CC(=O)c1ccccc1-c1cnn2c(-c3cccc(NC(=O)c4cccc(C(F)(F)F)c4)c3)ccnc12` [Example 298, N-{3-[3-(2-acetylphenyl)pyrazolo[1,5-a]pyrimidin-7-yl]phenyl}-3-(trifluoromethyl)benzamide], the IC50 stood at 266 nM and the inhibition at 10 µM worked out at 69%.
Taken in the same sequence, the figures for `CC(=O)c1cccc(-c2cnn3c(-c4cccc(NC(=O)c5cccc(C(F)(F)F)c5)c4)ccnc23)c1` [Example 299, N-{3-[3-(3-acetylphenyl)pyrazolo[1,5-a]pyrimidin-7-yl]phenyl}-3-(trifluoromethyl)benzamide] were 619 nM and 63%.
For `CC(=O)c1ccc(-c2cnn3c(-c4cccc(NC(=O)c5cccc(C(F)(F)F)c5)c4)ccnc23)cc1` [Example 300, N-{3-[3-(4-acetylphenyl)pyrazolo[1,5-a]pyrimidin-7-yl]phenyl}-3-(trifluoromethyl)benzamide], in that order: 4490 nM and 71%.
For `O=C(Nc1cccc(-c2ccnc3c(-c4ccnc(Cl)c4)cnn23)c1)c1cccc(C(F)(F)F)c1` [Example 301, N-{3-[3-(2-chloropyridin-4-yl)pyrazolo[1,5-a]pyrimidin-7-yl]phenyl}-3-(trifluoromethyl)benzamide], in that order: 1730 nM and 75%.
For the compound `Cc1cc(-c2cccc(NC(=O)c3cccc(C(F)(F)F)c3)c2)n2nc(-c3ccncc3)cc2n1` [Example 302, N-[3-(5-methyl-2-pyridin-4-ylpyrazolo[1,5-a]pyrimidin-7-yl)phenyl]-3-(trifluoromethyl)benzamide], the inhibition at 10 µM was found to be 72%. The IC50 under setting [1] worked out at 800 nM.
Regarding `CC(O)c1ccccc1-c1cnn2c(-c3cccc(NC(=O)c4cccc(C(F)(F)F)c4)c3)ccnc12` (stereo not shown) [Example 303, N-(3-{3-[2-(1-hydroxyethyl)phenyl]pyrazolo[1,5-a]pyrimidin-7-yl}phenyl)-3-(trifluoromethyl)benzamide], the inhibition at 10 µM amounted to 80%. Under setting [1], the IC50 turned out to be 288 nM.
Take `CC(O)c1cccc(-c2cnn3c(-c4cccc(NC(=O)c5cccc(C(F)(F)F)c5)c4)ccnc23)c1` (stereo not shown) [Example 304, N-(3-{3-[3-(1-hydroxyethyl)phenyl]pyrazolo[1,5-a]pyrimidin-7-yl}phenyl)-3-(trifluoromethyl)benzamide]: the inhibition at 10 µM amounted to 80%. The IC50 under setting [1] worked out at 195 nM.
For the compound `Cc1ccccc1-c1cnn2c(-c3cccc(NC(=O)c4cccc(C(F)(F)F)c4)c3)ccnc12` [Example 305, N-{3-[3-(2-methylphenyl)pyrazolo[1,5-a]pyrimidin-7-yl]phenyl}-3-(trifluoromethyl)benzamide], the midpoint of inhibition, the IC50, lay at 893 nM and the inhibition at 10 µM was determined as 54%.
In turn, `O=C(Nc1cccc(-c2ccnc3c(-c4cnn(CCN5CCCC5)c4)cnn23)c1)c1cccc(C(F)(F)F)c1` [Example 307, N-(3-{3-[1-(2-pyrrolidin-1-ylethyl)-1H-pyrazol-4-yl]pyrazolo[1,5-a]pyrimidin-7-yl}phenyl)-3-(trifluoromethyl)benzamide] yielded an IC50 of 393 nM.
As to `Cn1cc(-c2cnn3c(-c4cccc(NC(=O)c5cccc(C(F)(F)F)c5)c4)ccnc23)cn1` [Example 308, N-{3-[3-(1-methyl-1H-pyrazol-4-yl)pyrazolo[1,5-a]pyrimidin-7-yl]phenyl}-3-(trifluoromethyl)benzamide], the inhibition at 10 µM stood at 86%. Also, the IC50 under setting [1] was determined as 281 nM.
Taken in the same sequence, the figures for `O=Cc1cc(C=O)cc(-c2cnn3c(-c4cccc(NC(=O)c5cccc(C(F)(F)F)c5)c4)ccnc23)c1` [Example 310, N-{3-[3-(3,5-diformylphenyl)pyrazolo[1,5-a]pyrimidin-7-yl]phenyl}-3-(trifluoromethyl)benzamide] were 37% and above 10000 nM.
On to `O=C(Nc1cccc(-c2ccnc3c(-c4ccc(F)nc4)cnn23)c1)c1cccc(C(F)(F)F)c1` [Example 311, N-{3-[3-(6-fluoropyridin-3-yl)pyrazolo[1,5-a]pyrimidin-7-yl]phenyl}-3-(trifluoromethyl)benzamide], for which the IC50 came out at 10700 nM and the inhibition at 10 µM came out at 80%.
For `COc1ccc(-c2cnn3c(-c4cccc(NC(=O)c5cccc(C(F)(F)F)c5)c4)ccnc23)cn1` [Example 312, N-{3-[3-(6-methoxypyridin-3-yl)pyrazolo[1,5-a]pyrimidin-7-yl]phenyl}-3-(trifluoromethyl)benzamide], in that order: 578 nM and 77%.
With `O=Cc1ccc(-c2cnn3c(-c4cccc(NC(=O)c5cccc(C(F)(F)F)c5)c4)ccnc23)o1` [Example 313, N-{3-[3-(5-formyl-2-furyl)pyrazolo[1,5-a]pyrimidin-7-yl]phenyl}-3-(trifluoromethyl)benzamide], the inhibition at 10 µM came to 78%. Also, the IC50 under setting [1] is above 10000 nM.
For `O=C(O)c1cccc(-c2cnn3c(-c4cccc(NC(=O)c5cccc(C(F)(F)F)c5)c4)ccnc23)c1` [Example 314, 3-[7-(3-{[3-(trifluoromethyl)benzoyl]amino}phenyl)pyrazolo[1,5-a]pyrimidin-3-yl]benzoic acid], the inhibition at 10 µM was 82%. The IC50 under setting [1] was 514 nM.
On to `O=C(Nc1cccc(-c2ccnc3c(-c4ccc(CN5CCCC5)cc4)cnn23)c1)c1cccc(C(F)(F)F)c1` [Example 315, N-(3-{3-[4-(pyrrolidin-1-ylmethyl)phenyl]pyrazolo[1,5-a]pyrimidin-7-yl}phenyl)-3-(trifluoromethyl)benzamide], for which the IC50 turned out to be 20.5 nM and the inhibition at 10 µM is 102%.
As for `O=C(Nc1cccc(-c2ccnc3c(-c4ccc(CN5CCCC5)o4)cnn23)c1)c1cccc(C(F)(F)F)c1` [Example 316, N-(3-{3-[5-(pyrrolidin-1-ylmethyl)-2-furyl]pyrazolo[1,5-a]pyrimidin-7-yl}phenyl)-3-(trifluoromethyl)benzamide], the inhibition at 10 µM stood at 92%. Besides, the half-inhibitory concentration (IC50) under setting [1] was 541 nM.
